This note sets out measurements from patent publication US9079854B2 (priority 2007, dated 2015).

The target in experiment [1] is T1, human CB1 (hCB1) receptor (Homo sapiens, UniProt P21554).
T1 construct: expressed in transfected cells; host or cells: CHO (Chinese hamster ovary) cells, membranes
In words: CB1 binding assay, competitive binding of [3H]CP 55940. The conditions noted are these: for inhibition at 1 µM: CHO membranes. As to the method: Cell membrane homogenates (25 μg protein) are incubated for 120 min at 37° C. with 0.5 nM [^3H]CP 55940 (the reference standard [Rinaldi-Carmona, 1996 #1320]) in the absence or presence of the test compound in a buffer containing 50 mM Tris HCl (pH 7.4), 5 mM MgCl2, 2.5 mM EDTA, and 0.3% bovine serum albumin (BSA). […]
(§1) […] [^3H]-CP55940 at a concentration of 0.5 nM and [^3H]-WIN55212 at a concentration of 0.8 nM were used as radioligands for hCB1 and hCB2 assays, respectively. The results are expressed as a percent inhibition of control specific binding. Compounds which displaced the radioligand by more than 50% for either hCB1 or hCB2 receptors were arbitrary chosen for functional activity determination.

For experiment [2], the target named is T2, human CB2 (hCB2) receptor (Homo sapiens, UniProt P34972).
T2 construct: expressed in transfected cells; host or cells: CHO (Chinese hamster ovary) cells, membranes
T2 sequence (P34972 whole entry): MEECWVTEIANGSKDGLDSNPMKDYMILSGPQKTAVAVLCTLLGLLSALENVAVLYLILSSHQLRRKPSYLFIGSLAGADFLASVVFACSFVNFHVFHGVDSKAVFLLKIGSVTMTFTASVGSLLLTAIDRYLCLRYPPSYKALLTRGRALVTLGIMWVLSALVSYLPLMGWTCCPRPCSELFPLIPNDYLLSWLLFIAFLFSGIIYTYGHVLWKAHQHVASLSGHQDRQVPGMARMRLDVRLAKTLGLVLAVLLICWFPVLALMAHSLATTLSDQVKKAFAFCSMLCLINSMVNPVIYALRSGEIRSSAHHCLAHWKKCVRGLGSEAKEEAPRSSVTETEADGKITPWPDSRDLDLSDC
The experiment can be described thus: CB2 binding assay, competitive binding of [3H]WIN 55212-2. The conditions noted are these: for inhibition at 1 µM: read-out: % inhibition hCB2 receptor, at 1 μM, CHO membranes. As to the method:
Cell membrane homogenates (15 μg protein) are incubated for 120 min at 37° C. with 0.8 nM [^3H]WIN 55212-2 (the reference standard [Munro, 1993 #1321]) in the absence or presence of the test compound in a buffer containing 50 mM HEPES/Tris HCL (pH 7.4), 5 mM MgCl2, 2.5 mM EGTA, and 0.1% BSA. Nonspecific binding is determined in the presence of 10 μM WIN 55212-2. After being incubated, the samples are filtered rapidly under vacuum through glass fiber filters (GF/B; Packard) presoaked with 0.3% PEI and rinsed several times with ice-cold buffer containing 50 mM Tris HCl (pH 7.4) and 0.5% BSA using a 96-sample cell harvester (Unifilter; Packard). The filters are dried then counted for radioactivity in a scintillation counter (Topcount; Packard) using a scintillation cocktail (Microscint 0; Packard). The results are expressed as a percentage of the inhibition of the control radioligand-specific binding. The reference standard compounds are tested in each experiment at several concentrations to obtain a competition curve from which its IC50 is calculated.
as §1

In experiment [3] the target is T3, hCB2 receptor (Homo sapiens, UniProt P34972).
T3 construct: purchased ES-111-MG; host or cells: CHO membrane extracts
T3 sequence (P34972 whole entry): as above
The experiment can be described thus: CB2 functional assay, [35S]GTP-γ-S binding. The experiment is classed as biochemical. On the procedure: (§2) A dose response curve was generated at eight concentrations in duplicate on CB1 and CB2 in light of reference agonists.
(§3) Membranes (CB1, ES-110-MG or CB2, ES-111-MG) are mixed with GDP (volume:volume) and incubated for at least […] on ice. In parallel, […] are mixed with the beads (volume:volume) just before starting the reaction. The following reagents are successively added in the wells of an Optiplate: 50 μl of ligand, 20 μl of the membranes:GDP mix, 10 μl of assay buffer for agonist testing and 20 μl of the […]: beads mix. The plates are covered with a topseal, shaken on an orbital shaker for 2 min, and then incubated between 30 to 60 min at room temperature. Then the plates are centrifuged for 10 min at 2000 rpm, incubated at room temperature between 1 to 4 hours and counted for 1 min with a PerkinElmer TopCount reader.
(§4) Functional activity for acyl hydrazone was evaluated using [^35S]GTP-γ-S assay in CHO membrane extracts expressing recombinant hCB1 receptor or hCB2 receptor. The assay relies on the binding of [^35S]GTP-γ-S, a radiolabeled nonhydrolyzable GTP analogue, to the G protein upon binding of an agonist of the G-protein-coupled receptor. In this system, agonists stimulate [^35S]GTP-γ-S binding whereas neutral antagonist have no effect and inverse agonists decrease [^35S]GTP-γ-S basal binding.
(§5) CB1 and CB2 assay data are presented as the mean of two determinations. […] For replicate determinations, the maximum variability tolerated in the test was of ±20% around the average of the replicates.

Experiment [4] has as its target CB1 (Homo sapiens, UniProt P21554). The experiment can be described thus: CB1 functional assay, [35S]GTP-γ-S binding. The experiment is classed as biochemical. Details: purchased ES-110-MG; host or cells: CHO membrane extracts. The conditions noted are these: for Emax at 3 µM: read-out: [35S]GTP-γ-S hCB1 Emax (%), Table 9 footnote a: Efficacy determined at 3 μM, relative to CP 55,940; for EC50: mean of two determinations, read-out: [35S]GTP-γ-S hCB1 EC50 (nM ± SEM). As to the method:
as §2, §3, §4, §5

The mark [5] stands for this setting: specific binding of [3H]-CP55940.
Where [6] appears, read: specific binding of [3H]-WIN55212-2.
The mark [7] stands for this setting: Table 9, mean of two determinations, read-out: [35S]GTP-γ-S hCB2 EC50 (nM ± SEM).
[8] abbreviates: Table 9, relative to the efficacy of CP 55,940.
The mark [9] stands for this setting: Table 7, relative to the efficacy of CP55940.

Read-outs that look alike come from different tables or passages of the source.

CB1, sequence (P21554 whole entry): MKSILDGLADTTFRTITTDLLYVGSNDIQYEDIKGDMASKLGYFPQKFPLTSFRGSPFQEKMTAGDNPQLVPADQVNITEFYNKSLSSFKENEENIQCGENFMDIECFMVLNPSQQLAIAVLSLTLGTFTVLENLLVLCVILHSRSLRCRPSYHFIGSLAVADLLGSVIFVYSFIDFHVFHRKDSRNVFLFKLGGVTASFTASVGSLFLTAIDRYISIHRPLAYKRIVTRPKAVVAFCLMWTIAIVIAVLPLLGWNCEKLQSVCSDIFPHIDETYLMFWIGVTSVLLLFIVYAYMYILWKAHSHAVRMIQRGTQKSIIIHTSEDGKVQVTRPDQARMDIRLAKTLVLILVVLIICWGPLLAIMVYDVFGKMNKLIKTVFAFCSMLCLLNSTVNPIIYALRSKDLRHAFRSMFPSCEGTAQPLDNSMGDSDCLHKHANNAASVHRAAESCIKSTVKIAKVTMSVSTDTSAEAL
T1 sequence (P21554 whole entry): as above

As a reminder, the inhibition is the share of the control response that was lost under treatment. A word on the EC50: it is the concentration giving half of the maximal effect. By Emax is commonly meant the maximal effect, on the per cent scale that the assay sets. Take `CCCCCCN1C(=O)/C(=N\NC(=O)C2CCCCC2)c2ccccc21` [Example 11, N′-[(3Z)-1-hexyl-2-oxo-1,2-dihydro-3H-indol-3-ylidene]cyclohexanecarbohydrazide]: the inhibition at 1 µM in experiment [1] (setting [5]) came out at 65.8 ± 0.2%; in experiment [2] (setting [6]), 61 ± 2.1%. Besides, the half-maximal effective concentration (EC50) in experiment [3] (setting [7]) turned out to be 79.1 ± 1.5 nM. Further, the Emax in experiment [3] (setting [8]) was found to be 58%. The Emax at 3 µM in experiment [4] was 40.9%.

`CCCCN1C(=O)/C(=N\NC(=O)c2ccccc2)c2ccccc21` [Example 22, N′-[(3Z)-1-(1-butyl)-2-oxo-1,2-dihydro-3H-indol-3-ylidene]benzohydrazide]: the inhibition at 1 µM in experiment [1] (setting [5]) turned out to be 86 ± 2.4%; in experiment [2] (setting [6]) it was 70 ± 2.4%. Also, in experiment [3] (setting [7]), the concentration for a half-maximal effect (EC50) came to 40.1 ± 1.5 nM. The maximum response (Emax) in experiment [3] (setting [8]) turned out to be 98.9%. For the same compound, in experiment [4], the Emax at 3 µM was determined as 69%.

Regarding `CCCCCN1C(=O)/C(=N\NC(=O)c2ccccc2)c2ccccc21` [Example 23, N′-[(3Z)-1-(1-pentyl)-2-oxo-1,2-dihydro-3H-indol-3-ylidene]benzohydrazide], the inhibition at 1 µM worked out at 95 ± 0.9% in experiment [1] (setting [5]) and 80 ± 0.9% in experiment [2] (setting [6]). Further, the half-maximal effective concentration (EC50) in experiment [3] (setting [7]) was found to be 240 ± 3.2 nM; in experiment [4] (Table 9), 314.1 ± 1.6 nM. The maximal effect (Emax) was found to be 68.5% in experiment [3] (setting [8]) and 95.1% in experiment [4] (setting [8]).

As for `CCCCCCN1C(=O)/C(=N\NC(=O)OC(C)(C)C)c2ccccc21` [Example 14, tert-butyl (2Z)-2-(1-hexyl-2-oxo-1,2-dihydro-3H-indol-3-ylidene)hydrazinecarboxylate], the inhibition at 1 µM in experiment [1] (setting [5]) came to 85.1 ± 3.3%; in experiment [2] (setting [6]), 82.3 ± 0.8%. Besides, the results for the EC50 in experiment [3] (setting [7]) and in experiment [4] (Table 9) were 22.4 ± 1.3 nM and 937.1 ± 1.2 nM, respectively. Besides, the maximum response (Emax) came out at 43.4% in experiment [3] (setting [8]) and 92% in experiment [4] (setting [8]).

`O=C(N/N=C1\C(=O)N(CCC2CCCCC2)c2ccccc21)c1ccccc1` [Example 5, Benzoic acid [1-(2-cyclohexyl-ethyl)-2-oxo-1,2-dihydro-indol-3-ylidene]-hydrazide]: the “% of Control Specific Binding 1st” value is 0.4% in experiment [1] (CB1, Test Concentration 1.0E−05 (MD), 1st determination) and 13.9% in experiment [2] (CB2, Test Concentration 1.0E−05 (MD), 1st determination). The “% of Control Specific Binding 2nd” value in experiment [1] (CB1, Test Concentration 1.0E−05 (MD), 2nd determination) was 7.7%; in experiment [2] (CB2, Test Concentration 1.0E−05 (MD), 2nd determination), 26.4%. Besides, the “% of Control Specific Binding Mean” value in experiment [1] (CB1, Test Concentration 1.0E−05 (MD), mean) was found to be 4%; in experiment [2] (CB2, Test Concentration 1.0E−05 (MD), mean), 20.2%. The inhibition at 10 µM in experiment [1] (at 10 μM, specific binding of [3H]-CP55940) is 96 ± 3.7%; in experiment [2] (read-out: % inhibition hCB2 receptor, at 10 μM, specific binding of [3H]-WIN55212-2), 79.8 ± 6.3%. In addition, the “% Inhibition of Control Specific Binding” value in experiment [2] (CB2, Test Concentration 1.0E−05 (MD)) is 80%. In addition, the “% Inhibition of Control Specific Binding CB2” value in experiment [2] (Table 4, concentration not given) is reported as 80%. For the same compound, the “% Activation Average” value in experiment [3] (CB2 Functional Activity) is 55.55%; in experiment [4] (CB1 Functional Activity), 56.75%. For the same compound, the “Compound Activity” value in experiment [3] (CB2 Functional Activity) and in experiment [4] (CB1 Functional Activity) was “Agonist” throughout. In addition, the concentration giving a half-maximal response (EC50) stood at 103 nM in experiment [3] (CB2 Functional Activity, read-out: EC50 (nM) for GTP Binding) and 103 ± 1.6 nM in experiment [3] (Table 7, mean of two determinations, read-out: [35S]GTP-γ-S (hCB2) EC50 (nM ± SEM)). In addition, the Emax was 55.6% in experiment [3] (setting [9]) and 56.8% in experiment [4] (setting [9]).

For `O=C(N/N=C1\C(=O)N(Cc2ccc(Cl)cc2)c2ccccc21)c1ccccc1` [Example 26, N′-[(3Z)-1-(4-chlorobenzyl)-2-oxo-1,2-dihydro-3H-indol-3-ylidene]benzohydrazide], the inhibition at 1 µM in experiment [1] (setting [5]) turned out to be 94.5 ± 0.8%; in experiment [2] (setting [6]), 22 ± 1.6%. Besides, the figures for the EC50 in experiment [3] (setting [7]) and in experiment [4] (Table 9) were 131 ± 1.7 nM and 895.6 ± 1.2 nM, respectively. In addition, the Emax in experiment [3] (setting [8]) came out at 39.8%; in experiment [4] (setting [8]), 72%.

`O=C(N/N=C1\C(=O)N(CC2CCCCC2)c2ccccc21)c1ccccc1` [Example 25, N′-[(3Z)-1-(cyclohexylmethyl)-2-oxo-1,2-dihydro-3H-indol-3-ylidene]benzohydrazide]: the inhibition at 1 µM was found to be 99 ± 1.1% in experiment [1] (setting [5]) and 100 ± 0.4% in experiment [2] (setting [6]). Moreover, the concentration for a half-maximal effect (EC50) in experiment [3] (setting [7]) was found to be 9.8 ± 1.1 nM; in experiment [4] (Table 9), 62.3 ± 1.3 nM. The Emax came to 65.7% in experiment [3] (setting [8]) and 99% in experiment [4] (setting [8]).

Consider `CCCCCCN1C(=O)/C(=N\NC(=O)c2ccc(OC)cc2)c2ccccc21` [Example 17, N′-[(3Z)-1-hexyl-2-oxo-1,2-dihydro-3H-indol-3-ylidene]-4-methoxybenzohydrazide], for which the inhibition at 1 µM amounted to 81.7 ± 1.1% in experiment [1] (setting [5]) and 56 ± 5.7% in experiment [2] (setting [6]). Besides, the results for the EC50 in experiment [3] (setting [7]) and in experiment [4] (Table 9) were 143 ± 2.6 nM and 852 ± 1.2 nM, respectively. The values for the Emax in experiment [3] (setting [8]) and in experiment [4] (setting [8]) were 49.5% and 71%, respectively.
